The values that follow come from patent US20090247455A1, “Isolation of Inhibitors of IRES-Mediated Translation” (priority 2005, published 2009).

The assay relates to HEK293 cells comprising the pcDNA3-red-HCVIRES-gpt vector. As to the kind of experiment: Growth of HEK293 cells with the IRES-gpt construct versus control cells in 6-thioxanthine (OD 590 nm). The assay is classed as cell-based. The settings on record: 100 μM, up to 9 days, OD at days 2, 6 and 9, versus control cells. The method, then:
FIG. 3 is a graphical representation showing the growth of HEK293 cells comprising a construct in which a gpt gene is placed under the control of a HCV IRES or control cells grown in the presence or absence of 6-thioxanthine (100 μM). The number of days of 6-thioxanthine treatment is indicated on the X-axis. The optical density at 590 nm of the tissue culture flask containing the cells is shown on the Y-axis. […] The OD590 of cells comprising the IRES-gpt construct grown in the absence of 6-thioxanthine are represented by solid squares and dashed line. The OD590 of cells comprising the IRES-gpt construct grown in the presence of 6-thioxanthine are represented by solid squares and solid line.
Cells were also screened to determine those capable of expressing gpt under the control of HCV IRES. Briefly, transfected cells or control cells were maintained either in the absence or presence of 6-thioxanthine (100 μM) for up to 9 days. To determine any change in cell number an optical density measurement was performed at 590 nm at days 2, 6 and 9 after the addition of 6-thioxanthine to the relevant cells.

As for `O=c1[nH]c(=S)c2[nH]cnc2[nH]1` [6-thioxanthine], the “susceptibility of cells to 6-thioxanthine selection (optical density at 590 nm)” value was “considerably more susceptible”.
